Molecular target: T1, P2X2/3 receptors (Homo sapiens, UniProt P56373+Q9UBL9)
T1 sequence (Q9UBL9 1-471): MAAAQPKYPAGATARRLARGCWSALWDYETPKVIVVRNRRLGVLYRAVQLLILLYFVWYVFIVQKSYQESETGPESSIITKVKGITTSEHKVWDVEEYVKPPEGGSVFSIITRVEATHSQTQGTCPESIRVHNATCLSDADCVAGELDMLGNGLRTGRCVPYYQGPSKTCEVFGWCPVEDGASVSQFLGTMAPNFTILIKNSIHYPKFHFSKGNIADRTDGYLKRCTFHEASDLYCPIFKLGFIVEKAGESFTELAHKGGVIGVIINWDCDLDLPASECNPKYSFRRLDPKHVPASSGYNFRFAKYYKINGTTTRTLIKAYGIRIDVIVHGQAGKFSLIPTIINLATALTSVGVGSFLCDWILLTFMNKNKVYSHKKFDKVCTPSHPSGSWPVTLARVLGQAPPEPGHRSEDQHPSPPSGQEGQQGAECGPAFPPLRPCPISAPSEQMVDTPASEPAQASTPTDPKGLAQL
T1 sequence (P56373 1-397): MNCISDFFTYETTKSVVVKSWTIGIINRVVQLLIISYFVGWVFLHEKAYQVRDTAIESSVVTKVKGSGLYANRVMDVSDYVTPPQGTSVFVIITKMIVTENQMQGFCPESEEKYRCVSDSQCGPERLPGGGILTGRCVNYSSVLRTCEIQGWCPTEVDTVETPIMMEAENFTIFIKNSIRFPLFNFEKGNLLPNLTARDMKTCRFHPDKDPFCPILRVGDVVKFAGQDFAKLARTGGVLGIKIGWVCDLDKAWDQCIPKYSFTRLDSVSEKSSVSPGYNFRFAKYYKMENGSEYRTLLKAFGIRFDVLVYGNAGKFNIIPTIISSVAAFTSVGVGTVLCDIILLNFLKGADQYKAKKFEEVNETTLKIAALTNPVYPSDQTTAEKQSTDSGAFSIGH
Assay: SyncroPatch 96 recording of P2X2/3 receptors in 1321N1 cells
Type: cell-based
Details: 10 μM, 1321N1 cell, three applications with intermittent wash steps

SMILES: Nc1ncnc2c1ncn2[C@@H]1O[C@H](COP(=O)(O)OP(=O)(O)OP(=O)(O)O)[C@@H](O)[C@H]1O [ATP]
- activation of P2X2/3 receptors: repeatedly activated

— article PMC3223389 (Frontiers in Pharmacology, 2011)
